Read-outs that look alike come from different tables or passages of the source. Marks after values point to notes of the source that are not given here. Bridge positions count the residues as written; N and C are the ends. Ends that are not written are not given here. Peptide text beside a SMILES is read from it. * marks the point of attachment. Me2Gly = CN(C)CC(=O)*
Assays:
HeLa cells = test: Uptake of peptide-AF647 conjugate in HeLa cells (fluorescence microscopy, flow cytometry, endocytosis inhibitors); assay type: cell-based; conditions: for effect of endocytic inhibitors on uptake of SEQ ID NO: 15-A: SEQ ID NO: 15-A at 4 μM, flow cytometry, pre-treatment of HeLa cells
Experimental: SEQ ID NO: 15-A and HIV-Tat-FITC, an HIV-Tat protein conjugated to a FITC fluorophore, were each dosed in HeLa cells at a concentration of 20 μM. The fluorescence image was taken on a Nikon Live microscope at 40× magnification, four hours after cells were dosed with SEQ ID NO: 15-A and HIV-Tat-FITC. The green fluorescence (FITC) and the red fluorescence (AF647) were located in different punctate regions, showing that the two molecules are localized in different vesicles.
Fluorescence was measured via flow cytometry and quantified to determine uptake of the peptide conjugate in cells.
SEQ ID NO: 15-A was dosed at a concentration of […] HIV-Tat-FITC was dosed at a concentration of 1 mM, and Dextran-Texas Red was dosed at a concentration of 25 mg/ml.

[1] = Folding of manufactured peptide variants (HPLC traces); assay type: physicochemical
Text: Generally, the NMR solution structures of related structural homologs can be used to inform mutational strategies that may improve the folding, stability, manufacturability, while maintaining a particular biological function. They can be used to predict the 3D pharmacophore of a group of structurally homologous scaffolds, as wells as to predict possible graft regions of related proteins to create chimeras with improved properties. The general strategy for producing homologs can include identification of a charged surface patch of a protein, mutation of critical amino acid positions and loops, and testing of sequences. This strategy can be used to design peptides with improved properties or to correct deleterious mutations that complicate folding and manufacturability. […] Accordingly, three amino acid positions (R11, R13, and R31) were chosen to be individually mutated to improve stability, yielding peptides of SEQ ID NO: 18, SEQ ID NO: 20, and SEQ ID NO: 25.
This example illustrates the modification of a function of a peptide. A peptide of SEQ ID NO: 15 was modified at positively charge patches to give a peptide of SEQ ID NO: 1 and a peptide of SEQ ID NO: 2. The modified peptides were expressed recombinantly. Mutations at positively charged patches of a peptide of SEQ ID NO: 15 were not well tolerated as indicated by the lack of folding purity indicated by the HPLC traces in FIG. 15.

[2] = Experimental: (§1) This example describes analysis of the pharmacokinetics of a peptide of the disclosure. A ^14C radiolabeled peptide of SEQ ID NO: 15 (SEQ ID NO: 15-r) was administered to 6-10 week old female Harlan athymic mice at a dose of 2 μCi/33 nmol via intravenous administration, intraperitoneal administration, oral administration or subcutaneous administration. At each time point, urine was collected by massaging the abdomen and mice were subsequently euthanized by CO2 asphyxiation. Blood was collected by cardiac exsanguination following cessation of respiratory movement. Plasma was separated by centrifugation and frozen until further analysis. Radioactivity in biological samples (plasma or urine) was detected by liquid scintillation counting on a Beckman Scintillation counter at a read time of 10 minutes. For HPLC evaluation, urine and plasma samples were diluted 20 μl in 80 μl and analyzed on an Agilent analytical HPLC equipped with an inline Raytest scintillation detector. Pharmacokinetics analysis was performed using the PKSolver 2 compartment IV or extravascular bolus.
HPLC was used to separate peptide fragments and liquid scintillation counting was used to quantify the radioactive signal of intact peptides or peptide fragment. SEQ ID NO: 15-r was spiked in as a positive control for intact peptide and Glycine was spiked in as a negative control for metabolized peptide. […] SEQ ID NO: 15-r was spiked in as a positive control for intact peptide and Glycine was spiked in as a negative control for metabolized peptide. […] SEQ ID NO: 15-r was spiked in as a positive control for intact peptide and Glycine was spiked in as a negative control for metabolized peptide. […] SEQ ID NO: 15-r was spiked in as a positive control for intact peptide and Glycine was spiked in as a negative control for metabolized peptide.

[3] = Pharmacokinetics of radiolabeled peptide in plasma by liquid scintillation counting (PKSolver 2 compartment); assay type: in vivo, female Harlan athymic nude mice; parameters: AUC0-inf (area under the curve): unit not given here; conditions: 2 μCi/33 nmol
[4] = remark: listed apart in the source
Experimental: as §1
SEQ ID NO: 15-r was spiked in as a positive control for intact peptide and Glycine was spiked in as a negative control for metabolized peptide. […] HPLC was used to separate peptide fragments and liquid scintillation counting was used to quantify the radioactive signal of intact peptides or peptide fragment. […] SEQ ID NO: 15-r was spiked in as a positive control for intact peptide and Glycine was spiked in as a negative control for metabolized peptide. […] SEQ ID NO: 15-r was spiked in as a positive control for intact peptide and Glycine was spiked in as a negative control for metabolized peptide. […] SEQ ID NO: 15-r was spiked in as a positive control for intact peptide and Glycine was spiked in as a negative control for metabolized peptide.

[5] = IP, 3 hr, 0 = no intact peptide was measured

SEQ ID NO: 15-A (GSSCEPGRTFRDRCNTCRCGADGRSAACTLRACPNQ; cysteine pairing not given here; also: conjugate A)
internalization by HeLa cells (fluorescence image) (HeLa cells; 20 μM, four hours after dosing, 40×): internalized by HeLa cells

GSSCEPGRTFADACNTCRCGADGRSAACTLAACPNQ [SEQ ID NO: 2]
folding of the manufactured peptide [1]: unable to fold

GSSCEPGRTFRDRCNTCRCGADGRSAACTLEACPNQ [SEQ ID NO: 25]
folding of the manufactured peptide [1]: Improved folding

CC(C)C[C@@H]1NC(=O)[C@H]([C@@H](C)O)NC(=O)[C@@H]2CSSC[C@@H]3NC(=O)[C@H]([C@@H](C)O)NC(=O)[C@H](CC(N)=O)NC(=O)[C@H](CSSC[C@@H](C(=O)N4CCC[C@H]4C(=O)N[C@@H](CC(N)=O)C(=O)N[C@@H](CCC(N)=O)C(=O)O)NC(=O)[C@H](C)NC(=O)[C@H](CCCNC(=N)N)NC1=O)NC(=O)[C@H](CCCNC(=N)N)NC(=O)[C@H](CC(=O)O)NC(=O)[C@H](CCCNC(=N)N)NC(=O)[C@H](Cc1ccccc1)NC(=O)[C@H]([C@@H](C)O)NC(=O)[C@H](CCCNC(=N)N)NC(=O)CNC(=O)[C@@H]1CCCN1C(=O)[C@H](CCC(=O)O)NC(=O)[C@@H](NC(=O)[C@H](CO)NC(=O)[C@H](CO)NC(=O)CN(C)C)CSSC[C@H](NC(=O)[C@H](CCCNC(=N)N)NC3=O)C(=O)NCC(=O)N[C@@H](C)C(=O)N[C@@H](CC(=O)O)C(=O)NCC(=O)N[C@@H](CCCNC(=N)N)C(=O)N[C@@H](CO)C(=O)N[C@@H](C)C(=O)N[C@@H](C)C(=O)N2 [SEQ ID NO: 15-r] (Me2Gly-SSCEPGRTFRDRCNTCRCGADGRSAACTLRACPNQ-OH; disulfide 3-18, 13-32, 16-27 (inferred); N-terminus and C-terminus assumed)
percentage of AUC of intact peptide of the total radioactive signal (total AUC) in plasma ([2]; IP, 5 min): 94%
percentage of AUC of intact peptide of the total radioactive signal (total AUC) in plasma ([2]; IP, 30 min): 100%
percentage of AUC of intact peptide of the total radioactive signal (total AUC) in plasma ([2]; IP, 1 hr): 66%
percentage of AUC of intact peptide of the total radioactive signal (total AUC) in plasma [2, 5]: 0%
percentage of AUC of intact peptide of the total radioactive signal (total AUC) in plasma ([2]; IV, 5 min): 92%
percentage of AUC of intact peptide of the total radioactive signal (total AUC) in plasma ([2]; IV, 30 min): 100%
percentage of AUC of intact peptide of the total radioactive signal (total AUC) in plasma ([2]; PO, 8 hr): 45%
percentage of AUC of intact peptide of the total radioactive signal (total AUC) in plasma ([2]; SC, 5 min): 100%
percentage of AUC of intact peptide of the total radioactive signal (total AUC) in plasma ([2]; SC, 30 min): 88%
percentage of AUC of intact peptide of the total radioactive signal (total AUC) in plasma ([2]; SC, 1 hr): 50%
time by which intact peptide signal in plasma reached baseline ([2]; intraperitoneal injection): ≤ 3 h
time by which intact peptide signal in plasma reached baseline ([2]; intravenous injection): ≤ 3 h
intact peptide or breakdown products observed in plasma ([2]; oral administration): neither intact peptide or breakdown products of the peptide were observed in plasma
AUC0-inf (area under the curve) ([3]; IP): 25.59
CL/F (drug clearance over time) ([3]; IP): 1.28 nmol/(pmol/μl)/h
Cmax (peak drug concentration) ([3]; IP): 5.23 pmol/µL
AUC0-inf (area under the curve) ([3]; IV): 19.08
CL/F (drug clearance over time) ([3]; IV): 1.73 nmol/(pmol/μl)/h
Cmax (peak drug concentration) ([3]; IV): 33* pmol/μl
AUC0-inf (area under the curve) ([3]; Oral): 46
CL/F (drug clearance over time) ([3]; Oral): 0.53 nmol/(pmol/μl)/h
Cmax (peak drug concentration) ([3]; Oral): 0.59 pmol/µL
AUC0-inf (area under the curve) ([3]; SC): 171
CL/F (drug clearance over time) ([3]; SC): 0.144 nmol/(pmol/μl)/h
Cmax (peak drug concentration) ([3]; SC): 8.57 pmol/µL
percentage of AUC of intact peptide of the total radioactive signal (total AUC) in urine ([4]; IP, 5 min): 60%
percentage of AUC of intact peptide of the total radioactive signal (total AUC) in urine ([4]; IP, 30 min): 49%
percentage of AUC of intact peptide of the total radioactive signal (total AUC) in urine [4, 5]: 0%
percentage of AUC of intact peptide of the total radioactive signal (total AUC) in urine ([4]; IP, 24 hr, 0 = no intact peptide was measured): 0%
percentage of AUC of intact peptide of the total radioactive signal (total AUC) in urine ([4]; IP, 48 hr, 0 = no intact peptide was measured): 0%
percentage of AUC of intact peptide of the total radioactive signal (total AUC) in urine ([4]; IV, 5 min): 77%
percentage of AUC of intact peptide of the total radioactive signal (total AUC) in urine ([4]; IV, 30 min): 47%
percentage of AUC of intact peptide of the total radioactive signal (total AUC) in urine ([4]; IV, 1 hr): 43%
percentage of AUC of intact peptide of the total radioactive signal (total AUC) in urine ([4]; IV, 3 hr, 0 = no intact peptide was measured): 0%
percentage of AUC of intact peptide of the total radioactive signal (total AUC) in urine ([4]; IV, 8 hr, 0 = no intact peptide was measured): 0%
percentage of AUC of intact peptide of the total radioactive signal (total AUC) in urine ([4]; IV, 24 hr, 0 = no intact peptide was measured): 0%
percentage of AUC of intact peptide of the total radioactive signal (total AUC) in urine ([4]; PO, 3 hr, 0 = no intact peptide was measured): 0%
percentage of AUC of intact peptide of the total radioactive signal (total AUC) in urine ([4]; PO, 8 hr, 0 = no intact peptide was measured): 0%
percentage of AUC of intact peptide of the total radioactive signal (total AUC) in urine ([4]; PO, 48 hr, 0 = no intact peptide was measured): 0%
percentage of AUC of intact peptide of the total radioactive signal (total AUC) in urine ([4]; SC, 5 min, 0 = no intact peptide was measured): 0%
percentage of AUC of intact peptide of the total radioactive signal (total AUC) in urine ([4]; SC, 30 min, 0 = no intact peptide was measured): 0%
percentage of AUC of intact peptide of the total radioactive signal (total AUC) in urine ([4]; SC, 1 hr, 0 = no intact peptide was measured): 0%
percentage of AUC of intact peptide of the total radioactive signal (total AUC) in urine ([4]; SC, 8 hr, 0 = no intact peptide was measured): 0%
percentage of AUC of intact peptide of the total radioactive signal (total AUC) in urine ([4]; SC, 48 hr, 0 = no intact peptide was measured): 0%
time by which intact peptide in urine dropped to baseline ([4]; intraperitoneal injection): ≤ 3 h
time by which intact peptide signal in urine reached baseline ([4]; intravenous injection): ≤ 3 h
intact peptide observed in urine ([4]; oral administration): intact peptide was not observed in urine
intact peptide observed in urine ([4]; subcutaneous administration): intact peptide was not observed in urine

GSSCEPGRTFRDECNTCRCGADGRSAACTLRACPNQ [SEQ ID NO: 20]
folding of the manufactured peptide [1]: Improved folding

GSSCEPGRTFEDRCNTCRCGADGRSAACTLRACPNQ [SEQ ID NO: 18]
folding of the manufactured peptide [1]: Improved folding

GSSCEPGRTFEDECNTCRCGADGRSAACTLEACPNQ [SEQ ID NO: 1]
folding of the manufactured peptide [1]: unable to fold

CCCCC[C@@H](O)[C@H]1C(=O)O[C@H](C)[C@@H](O)/C=C/C=C/C=C/C=C/C=C(\C)[C@@H](O)C[C@H](O)C[C@H](O)C[C@H](O)C[C@H](O)C[C@H](O)C[C@@H]1O [filipin]
effect of endocytic inhibitors on uptake of SEQ ID NO: 15-A (HeLa cells): inhibit the uptake of SEQ ID NO: 15-A

methyl-beta-cyclodextrin [methyl-beta-cyclodextrin (MBCD)]
inhibition of uptake of SEQ ID NO: 15-A relative to dextran and HIV-Tat (HeLa cells; 2 mM MBCD pre-treatment of HeLa cells): inhibits uptake of SEQ ID NO: 15-A to a greater extent than dextran, a fluid-phase marker, or HIV-Tat
effect of endocytic inhibitors on uptake of SEQ ID NO: 15-A (HeLa cells): inhibit the uptake of SEQ ID NO: 15-A

Reference: patent US20190292243A1, “PEPTIDES AND METHODS OF USE THEREOF” (Fred Hutchinson Cancer Research Center, priority 2016, published 2019)
